Assay results reported in patent US6339045B1, “N-(unsubstituted or substituted)-4-substituted-6-(unsubstituted or substituted)phenoxy-2-pyridinecarboxamides or thiocarboxamides, processes for producing the same, and herbicides” (Kureha Kagaku Kogyo Kabushiki Kaisha, priority 1995, dated 2002).

Assays:
[1] = tested on: black nightshade (Solanum nigrum); test: Herbicidal effect by foliage and soil treatment; format: in vivo; details: evaluated after 14 days
Outline: (§1)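 Scores are ratings of growth versus untreated plants 14 days after treatment. Plants grown to cotyledonal–bifoliate stage in granular soil at 19 to 25° C received a foliage-and-soil spray of test solution containing Tween 20, applied at a set compound amount.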

[2] = tested on: cleavers (Galium aparine); test: Herbicidal effect by foliage and soil treatment; format: in vivo; details: evaluated after 14 days
Outline: as §1

[3] = tested on: common blackjack (Bidens pilosa); test: Herbicidal effect by foliage and soil treatment; format: in vivo; details: evaluated after 14 days
Outline: as §1

[4] = tested on: common chickweed (Stellaria media); test: Herbicidal effect by foliage and soil treatment; format: in vivo; details: evaluated after 14 days
Outline: as §1

[5] = tested on: field bindweed (Convolvulus arvensis); test: Herbicidal effect by foliage and soil treatment; format: in vivo; details: evaluated after 14 days
Outline: as §1

[6] = tested on: ivyleafspeedwell (Veronica hederaefolia); test: Herbicidal effect by foliage and soil treatment; format: in vivo; details: evaluated after 14 days
Outline: as §1

[7] = tested on: kediock (Sinapis arvensis); test: Herbicidal effect by foliage and soil treatment; format: in vivo; details: evaluated after 14 days
Outline: as §1

[8] = tested on: redroot pigweed (Amaranthus retroflexus); test: Herbicidal effect by foliage and soil treatment; format: in vivo; details: evaluated after 14 days
Outline: as §1

[9] = tested on: sicklepod (Cassia obtusifolia); test: Herbicidal effect by foliage and soil treatment; format: in vivo; details: evaluated after 14 days
Outline: as §1

[10] = tested on: velvetleaf (Abutilon theophrasti); test: Herbicidal effect by foliage and soil treatment; format: in vivo; details: evaluated after 14 days
Outline: as §1

[11] = tested on: wild chamomile (Matricaria chamomilla); test: Herbicidal effect by foliage and soil treatment; format: in vivo; details: evaluated after 14 days
Outline: as §1

SMILES: CCS(=O)(=O)CCNC(=O)c1cc(OC)cc(Oc2cccc(C(F)(F)F)c2)n1 [Compound I-68, N-{2-(ethylsulfonyl)ethyl}-4-methoxy-6-{3-(trifluoromethyl)phenoxy}-2-pyridine carboxamide]
- herbicidal activity rating, SN (Solanum nigrum) ([1]; 10 g ai/10a): 5 (percentage of weeds killed was not less than 80%)
- herbicidal activity rating, GA (Galium aparine) ([2]; 10 g ai/10a): 5 (percentage of weeds killed was not less than 80%)
- herbicidal activity rating, BP (Bidens pilosa) ([3]; 10 g ai/10a): 4 (percentage of weeds killed was not less than 60% and less than 80%)
- herbicidal activity rating, SM (Stellaria media) ([4]; 10 g ai/10a): 4 (percentage of weeds killed was not less than 60% and less than 80%)
- herbicidal activity rating, CA (Convolvulus arvensis) ([5]; 10 g ai/10a): 4 (percentage of weeds killed was not less than 60% and less than 80%)
- herbicidal activity rating, VH (Veronica hederaefolia) ([6]; 10 g ai/10a): 5 (percentage of weeds killed was not less than 80%)
- herbicidal activity rating, SA (Sinapis arvensis) ([7]; 10 g ai/10a): 5 (percentage of weeds killed was not less than 80%)
- herbicidal activity rating, AR (Amaranthus retroflexus) ([8]; 10 g ai/10a): 5 (percentage of weeds killed was not less than 80%)
- herbicidal activity rating, CO (Cassia obtusifolia) ([9]; 10 g ai/10a): 5 (percentage of weeds killed was not less than 80%)
- herbicidal activity rating, AT (Abutilon theophrasti) ([10]; 10 g ai/10a): 5 (percentage of weeds killed was not less than 80%)
- herbicidal activity rating, MC (Matricaria chamomilla) ([11]; 10 g ai/10a): 2 (percentage of weeds killed was not less than 20% and less than 40%)
- melting point: 92 to 94 °C

SMILES: COc1cc(Oc2cccc(C(F)(F)F)c2)nc(C(=O)N2CC2C)c1 (centres unmarked) [Compound I-300, 4-methoxy-2-{N-(2-methylaziridinyl)carbonyl}-6-{3-(trifluoromethyl)phenoxy}-2-pyridine]
- herbicidal activity rating, SN (Solanum nigrum) ([1]; 10 g ai/10a): 5 (percentage of weeds killed was not less than 80%)
- herbicidal activity rating, GA (Galium aparine) ([2]; 10 g ai/10a): 5 (percentage of weeds killed was not less than 80%)
- herbicidal activity rating, BP (Bidens pilosa) ([3]; 10 g ai/10a): 5 (percentage of weeds killed was not less than 80%)
- herbicidal activity rating, SM (Stellaria media) ([4]; 10 g ai/10a): 5 (percentage of weeds killed was not less than 80%)
- herbicidal activity rating, CA (Convolvulus arvensis) ([5]; 10 g ai/10a): 4 (percentage of weeds killed was not less than 60% and less than 80%)
- herbicidal activity rating, VH (Veronica hederaefolia) ([6]; 10 g ai/10a): 5 (percentage of weeds killed was not less than 80%)
- herbicidal activity rating, SA (Sinapis arvensis) ([7]; 10 g ai/10a): 5 (percentage of weeds killed was not less than 80%)
- herbicidal activity rating, AR (Amaranthus retroflexus) ([8]; 10 g ai/10a): 5 (percentage of weeds killed was not less than 80%)
- herbicidal activity rating, CO (Cassia obtusifolia) ([9]; 10 g ai/10a): 5 (percentage of weeds killed was not less than 80%)
- herbicidal activity rating, AT (Abutilon theophrasti) ([10]; 10 g ai/10a): 4 (percentage of weeds killed was not less than 60% and less than 80%)
- herbicidal activity rating, MC (Matricaria chamomilla) ([11]; 10 g ai/10a): 2 (percentage of weeds killed was not less than 20% and less than 40%)

SMILES: COc1cc(Oc2cccc(C(F)(F)F)c2)nc(C(=O)N2CCCC2)c1 [Compound I-302, 4-methoxy-2-{N-(pyrrolidinyl)carbonyl}-6-{3-(trifluoromethyl)phenoxy}pyridine]
- herbicidal activity rating, SN (Solanum nigrum) ([1]; 10 g ai/10a): 5 (percentage of weeds killed was not less than 80%)
- herbicidal activity rating, GA (Galium aparine) ([2]; 10 g ai/10a): 5 (percentage of weeds killed was not less than 80%)
- herbicidal activity rating, BP (Bidens pilosa) ([3]; 10 g ai/10a): 2 (percentage of weeds killed was not less than 20% and less than 40%)
- herbicidal activity rating, SM (Stellaria media) ([4]; 10 g ai/10a): 5 (percentage of weeds killed was not less than 80%)
- herbicidal activity rating, CA (Convolvulus arvensis) ([5]; 10 g ai/10a): 4 (percentage of weeds killed was not less than 60% and less than 80%)
- herbicidal activity rating, VH (Veronica hederaefolia) ([6]; 10 g ai/10a): 5 (percentage of weeds killed was not less than 80%)
- herbicidal activity rating, SA (Sinapis arvensis) ([7]; 10 g ai/10a): 5 (percentage of weeds killed was not less than 80%)
- herbicidal activity rating, AR (Amaranthus retroflexus) ([8]; 10 g ai/10a): 5 (percentage of weeds killed was not less than 80%)
- herbicidal activity rating, CO (Cassia obtusifolia) ([9]; 10 g ai/10a): 5 (percentage of weeds killed was not less than 80%)
- herbicidal activity rating, AT (Abutilon theophrasti) ([10]; 10 g ai/10a): 4 (percentage of weeds killed was not less than 60% and less than 80%)
- herbicidal activity rating, MC (Matricaria chamomilla) ([11]; 10 g ai/10a): 4 (percentage of weeds killed was not less than 60% and less than 80%)

SMILES: CC(C)NC(=O)c1cccc(Oc2cccc(C(F)(F)F)c2)n1 [control (a)]
- herbicidal activity rating, SN (Solanum nigrum) ([1]; 10 g ai/10a): 4 (percentage of weeds killed was not less than 60% and less than 80%)
- herbicidal activity rating, SN (Solanum nigrum) ([1]; 25 g ai/10a): 4 (percentage of weeds killed was not less than 60% and less than 80%)
- herbicidal activity rating, SN (Solanum nigrum) ([1]; 62.5 g ai/10a): 5 (percentage of weeds killed was not less than 80%)
- herbicidal activity rating, GA (Galium aparine) ([2]; 10 g ai/10a): 2 (percentage of weeds killed was not less than 20% and less than 40%)
- herbicidal activity rating, GA (Galium aparine) ([2]; 25 g ai/10a): 3 (percentage of weeds killed was not less than 40% and less than 60%)
- herbicidal activity rating, GA (Galium aparine) ([2]; 62.5 g ai/10a): 4 (percentage of weeds killed was not less than 60% and less than 80%)
- herbicidal activity rating, BP (Bidens pilosa) ([3]; 10 g ai/10a): 1 (percentage of weeds killed was less than 20%)
- herbicidal activity rating, BP (Bidens pilosa) ([3]; 25 g ai/10a): 1 (percentage of weeds killed was less than 20%)
- herbicidal activity rating, BP (Bidens pilosa) ([3]; 62.5 g ai/10a): 1 (percentage of weeds killed was less than 20%)
- herbicidal activity rating, SM (Stellaria media) ([4]; 10 g ai/10a): 1 (percentage of weeds killed was less than 20%)
- herbicidal activity rating, SM (Stellaria media) ([4]; 25 g ai/10a): 1 (percentage of weeds killed was less than 20%)
- herbicidal activity rating, SM (Stellaria media) ([4]; 62.5 g ai/10a): 1 (percentage of weeds killed was less than 20%)
- herbicidal activity rating, CA (Convolvulus arvensis) ([5]; 10 g ai/10a): 2 (percentage of weeds killed was not less than 20% and less than 40%)
- herbicidal activity rating, CA (Convolvulus arvensis) ([5]; 25 g ai/10a): 3 (percentage of weeds killed was not less than 40% and less than 60%)
- herbicidal activity rating, CA (Convolvulus arvensis) ([5]; 62.5 g ai/10a): 3 (percentage of weeds killed was not less than 40% and less than 60%)
- herbicidal activity rating, VH (Veronica hederaefolia) ([6]; 10 g ai/10a): 3 (percentage of weeds killed was not less than 40% and less than 60%)
- herbicidal activity rating, VH (Veronica hederaefolia) ([6]; 25 g ai/10a): 4 (percentage of weeds killed was not less than 60% and less than 80%)
- herbicidal activity rating, VH (Veronica hederaefolia) ([6]; 62.5 g ai/10a): 5 (percentage of weeds killed was not less than 80%)
- herbicidal activity rating, SA (Sinapis arvensis) ([7]; 10 g ai/10a): 3 (percentage of weeds killed was not less than 40% and less than 60%)
- herbicidal activity rating, SA (Sinapis arvensis) ([7]; 25 g ai/10a): 4 (percentage of weeds killed was not less than 60% and less than 80%)
- herbicidal activity rating, SA (Sinapis arvensis) ([7]; 62.5 g ai/10a): 5 (percentage of weeds killed was not less than 80%)
- herbicidal activity rating, AR (Amaranthus retroflexus) ([8]; 10 g ai/10a): 3 (percentage of weeds killed was not less than 40% and less than 60%)
- herbicidal activity rating, AR (Amaranthus retroflexus) ([8]; 25 g ai/10a): 3 (percentage of weeds killed was not less than 40% and less than 60%)
- herbicidal activity rating, AR (Amaranthus retroflexus) ([8]; 62.5 g ai/10a): 4 (percentage of weeds killed was not less than 60% and less than 80%)
- herbicidal activity rating, CO (Cassia obtusifolia) ([9]; 10 g ai/10a): 1 (percentage of weeds killed was less than 20%)
- herbicidal activity rating, CO (Cassia obtusifolia) ([9]; 25 g ai/10a): 2 (percentage of weeds killed was not less than 20% and less than 40%)
- herbicidal activity rating, CO (Cassia obtusifolia) ([9]; 62.5 g ai/10a): 3 (percentage of weeds killed was not less than 40% and less than 60%)
- herbicidal activity rating, AT (Abutilon theophrasti) ([10]; 10 g ai/10a): 2 (percentage of weeds killed was not less than 20% and less than 40%)
- herbicidal activity rating, AT (Abutilon theophrasti) ([10]; 25 g ai/10a): 3 (percentage of weeds killed was not less than 40% and less than 60%)
- herbicidal activity rating, AT (Abutilon theophrasti) ([10]; 62.5 g ai/10a): 3 (percentage of weeds killed was not less than 40% and less than 60%)
- herbicidal activity rating, MC (Matricaria chamomilla) ([11]; 10 g ai/10a): 1 (percentage of weeds killed was less than 20%)
- herbicidal activity rating, MC (Matricaria chamomilla) ([11]; 25 g ai/10a): 1 (percentage of weeds killed was less than 20%)
- herbicidal activity rating, MC (Matricaria chamomilla) ([11]; 62.5 g ai/10a): 1 (percentage of weeds killed was less than 20%)

SMILES: CCCNC(=O)c1cccc(Oc2cccc(C(F)(F)F)c2)n1 [control (b)]
- herbicidal activity rating, SN (Solanum nigrum) ([1]; 10 g ai/10a): 5 (percentage of weeds killed was not less than 80%)
- herbicidal activity rating, GA (Galium aparine) ([2]; 10 g ai/10a): 5 (percentage of weeds killed was not less than 80%)
- herbicidal activity rating, BP (Bidens pilosa) ([3]; 10 g ai/10a): 1 (percentage of weeds killed was less than 20%)
- herbicidal activity rating, SM (Stellaria media) ([4]; 10 g ai/10a): 4 (percentage of weeds killed was not less than 60% and less than 80%)
- herbicidal activity rating, CA (Convolvulus arvensis) ([5]; 10 g ai/10a): 2 (percentage of weeds killed was not less than 20% and less than 40%)
- herbicidal activity rating, VH (Veronica hederaefolia) ([6]; 10 g ai/10a): 5 (percentage of weeds killed was not less than 80%)
- herbicidal activity rating, SA (Sinapis arvensis) ([7]; 10 g ai/10a): 5 (percentage of weeds killed was not less than 80%)
- herbicidal activity rating, AR (Amaranthus retroflexus) ([8]; 10 g ai/10a): 5 (percentage of weeds killed was not less than 80%)
- herbicidal activity rating, CO (Cassia obtusifolia) ([9]; 10 g ai/10a): 3 (percentage of weeds killed was not less than 40% and less than 60%)
- herbicidal activity rating, AT (Abutilon theophrasti) ([10]; 10 g ai/10a): 3 (percentage of weeds killed was not less than 40% and less than 60%)
- herbicidal activity rating, MC (Matricaria chamomilla) ([11]; 10 g ai/10a): 1 (percentage of weeds killed was less than 20%)

SMILES: CCCNC(=S)c1cccc(Oc2cccc(C(F)(F)F)c2)n1 [control (c)]
- herbicidal activity rating, SN (Solanum nigrum) ([1]; 10 g ai/10a): 4 (percentage of weeds killed was not less than 60% and less than 80%)
- herbicidal activity rating, GA (Galium aparine) ([2]; 10 g ai/10a): 4 (percentage of weeds killed was not less than 60% and less than 80%)
- herbicidal activity rating, BP (Bidens pilosa) ([3]; 10 g ai/10a): 1 (percentage of weeds killed was less than 20%)
- herbicidal activity rating, SM (Stellaria media) ([4]; 10 g ai/10a): 3 (percentage of weeds killed was not less than 40% and less than 60%)
- herbicidal activity rating, CA (Convolvulus arvensis) ([5]; 10 g ai/10a): 2 (percentage of weeds killed was not less than 20% and less than 40%)
- herbicidal activity rating, VH (Veronica hederaefolia) ([6]; 10 g ai/10a): 5 (percentage of weeds killed was not less than 80%)
- herbicidal activity rating, SA (Sinapis arvensis) ([7]; 10 g ai/10a): 5 (percentage of weeds killed was not less than 80%)
- herbicidal activity rating, AR (Amaranthus retroflexus) ([8]; 10 g ai/10a): 5 (percentage of weeds killed was not less than 80%)
- herbicidal activity rating, CO (Cassia obtusifolia) ([9]; 10 g ai/10a): 2 (percentage of weeds killed was not less than 20% and less than 40%)
- herbicidal activity rating, AT (Abutilon theophrasti) ([10]; 10 g ai/10a): 3 (percentage of weeds killed was not less than 40% and less than 60%)
- herbicidal activity rating, MC (Matricaria chamomilla) ([11]; 10 g ai/10a): 1 (percentage of weeds killed was less than 20%)
